Columns and labels:
mice = experiment: Accelerating RotaRod motor function test; type: in vivo, mouse; conditions: paclitaxel-treated mice, 4 mg/kg every other day for 8 days
Procedure: Paclitaxel treatment and behavioral testing. 2 month old age-matched bclw−/− and bclw+/+ mice (17-30 g) of either sex were injected intraperitoneally (IP) with 4 mg/kg paclitaxel (Bristol-Myers Squibb) every other day for 8 days (4 total injections). Paclitaxel was prepared as 1 part 6 mg/ml paclitaxel stock solution diluted in vehicle (1:1 v/v Cremophor EL [EMD Millipore] and dehydrated ethanol) and 2 parts sterile saline and injected at 10 μl/g. Control mice were injected with 1 part vehicle and 2 parts saline. […] For three days prior to the baseline testing, mice were weighed, trained on an automated RotaRod apparatus (4 rpm for 1 min without falling), and habituated in von Frey cages. The next two days, baseline behavioral performance was assessed and averaged. The first paclitaxel injection was given three days later, and mice were weighed and behaviorally tested 10 days after the final injection. To assay motor function, mice were placed on the RotaRod with a ramp of 4-40 rpm and 0.4 rpm/sec acceleration, and latency to fall was measured. […] Withdrawal threshold was determined to be the applied force at which the animal withdrew the stimulated paw on at least 2 of 10 applications. […] Mouse behavior was assessed by an experimenter blind to genotype and condition.

[1] = tested on: axonal mitochondria of E15 DRG neurons; experiment: TMRE measurement of mitochondrial membrane potential in microfluidic cultures; type: cell-based, rat; conditions: paclitaxel added to distal axon compartment
Procedure: Microfluidic chambers cultures were prepared as described (see, e.g., Fenstermacher et al., Nature Neuroscience, 19:690-696 (2016)), with modifications. Briefly, 3×10^4E15 DRG neurons (4 μl volume) were plated into one channel of a microfluidic device (Xona Microfluidics, SND450) affixed to a PDL/laminin-coated cover glass (Fisherbrand Microscope Cover Glass; 24×40-1.5). Cells were plated in media with 0.3 μM AraC; 50 ng/mL NGF+BDNF was added to cell body wells, and 100 ng/ml was added to axon wells. On day 2, cell body neurotrophins were reduced to 10 ng/ml. On day 4, cell body neurotrophins were reduced to 1 ng/ml and axon neurotrophins were reduced to 10 ng/ml. For paclitaxel treatment experiments, 60 μM paclitaxel or 0.1% DMSO vehicle control was added on day 5 to axon wells for 48 hours. Cells were fixed at room temperature with 4% PFA diluted 1:2 in media for 10 min, then undiluted 4% PFA for an additional 10 min.
Tetramethylrhodamine ethyl ester measurements of mitochondrial membrane potential. […] Fluorescence intensity of axonal mitochondria was measured by dividing the fluorescence intensity of each mitochondria (Fm) by the background fluorescence intensity of a nearby cytoplasmic region (Fc). Fluorescence intensity was measured using NIH ImageJ software for 80 mitochondria per condition across three experiments, by an observer blind to condition.

CC(=O)O[C@H]1C(=O)[C@@]2(C)[C@H]([C@H](OC(=O)c3ccccc3)[C@]3(O)C[C@H](OC(=O)[C@H](O)[C@@H](NC(=O)c4ccccc4)c4ccccc4)C(C)=C1C3(C)C)[C@]1(OC(C)=O)CO[C@@H]1C[C@@H]2O [paclitaxel]
motor function (latency to fall) (mice): normal motor function | axonal mitochondrial membrane potential (TMRE Fm/Fc) [1]: reduced axonal mitochondrial membrane potential
